Consider ten compounds from ChEMBL document CHEMBL1144462, “Spread in an Italian hospital of a clonal Acinetobacter baumannii strain producing the TEM-92 extended-spectrum beta-lactamase” (2007).

The test system of assay [1] is Acinetobacter baumannii. The assay can be described thus: Antibacterial activity against TEM92 ESBL-producing Acinetobacter baumannii by CLSI method. Format: functional.
Assay [2] deals with Acinetobacter baumannii. The assay can be described thus: Antibacterial activity against Acinetobacter baumannii by CLSI method. The class given is functional.

On to `NC[C@H]1O[C@H](O[C@H]2[C@H](O)[C@@H](O[C@H]3O[C@H](CO)[C@@H](O)[C@H](N)[C@H]3O)[C@H](N)C[C@@H]2N)[C@H](N)C[C@@H]1O` [TOBRAMYCIN], for which the MIC (usually the least concentration at which growth counts as inhibited) against Acinetobacter baumannii [1] is > 32 µg/mL.

On to `NCC[C@H](O)C(=O)N[C@@H]1C[C@H](N)[C@@H](O[C@H]2O[C@H](CN)[C@@H](O)[C@H](O)[C@H]2O)[C@H](O)[C@H]1O[C@H]1O[C@H](CO)[C@@H](O)[C@H](N)[C@H]1O` [AMIKACIN], for which the MIC with Acinetobacter baumannii [1] was ≤ 8 µg/mL.

On to `CCN1CCN(C(=O)N[C@@H](C(=O)N[C@@H]2C(=O)N3[C@@H]2SC(C)(C)[C@@H]3C(=O)O)c2ccccc2)C(=O)C1=O` [PIPERACILLIN], for which the MIC against Acinetobacter baumannii [1] was > 128 µg/mL.

Regarding `C[C@H]1COc2c(N3CCN(C)CC3)c(F)cc3c(=O)c(C(=O)O)cn1c23.C[C@H]1COc2c(N3CCN(C)CC3)c(F)cc3c(=O)c(C(=O)O)cn1c23.O` [LEVOFLOXACIN], in the assay with Acinetobacter baumannii [1], the MIC is > 32 µg/mL.

Consider `CC(C)(O/N=C(\C(=O)N[C@@H]1C(=O)N2C(C(=O)[O-])=C(C[n+]3ccccc3)CS[C@H]12)c1csc(N)n1)C(=O)O` [CEFTAZIDIME], for which the figures for the MIC with Acinetobacter baumannii [2] and against Acinetobacter baumannii [1] were ≥ 16 µg/mL and > 128 µg/mL, respectively.

For GENTAMICIN, the MIC in the assay with Acinetobacter baumannii [1] is > 128 µg/mL.

Take `CO/N=C(\C(=O)N[C@@H]1C(=O)N2C(C(=O)O)=C(COC(C)=O)CS[C@H]12)c1csc(N)n1` [CEFOTAXIME]: the MIC with Acinetobacter baumannii [2] is ≥ 16 µg/mL; against Acinetobacter baumannii [1], > 128 µg/mL.

Regarding `C[C@@H](O)[C@H]1C(=O)N2C(C(=O)O)=C(SCCNC=N)C[C@H]12` [IMIPENEM ANHYDROUS], the MIC against Acinetobacter baumannii [2] was ≥ 8 µg/mL; against Acinetobacter baumannii [1], ≤ 1 µg/mL.

For the compound `CO/N=C(\C(=O)N[C@@H]1C(=O)N2C(C(=O)O)=C(CSc3nc(=O)c(O)nn3C)CS[C@H]12)c1csc(N)n1` [CEFTRIAXONE], the MIC in the assay with Acinetobacter baumannii [1] was > 128 µg/mL.

In the case of `C[C@@H](O)[C@H]1C(=O)N2C(C(=O)O)=C(S[C@@H]3CN[C@H](C(=O)N(C)C)C3)[C@H](C)[C@H]12` [MEROPENEM], the MIC with Acinetobacter baumannii [1] is ≤ 2 µg/mL.
